target: 3CL Protease (Severe acute respiratory syndrome coronavirus 2, UniProt P0DTD1); assay: 3CL Protease enzymatic activity assay (BPS Bioscience Assay Kit #78043-1, fluorescence); format: biochemical, SARS-CoV-2; settings: Table A; 30 min preincubation, 40 μM substrate, 4 hours at room temperature; read-out: IC50, nM (3CL Protease enzymatic activity)
In short: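 SARS-CoV-2 3CL protease was preincubated with compound 30 min at room temperature in assay buffer with 1 mM DTT (≤1% DMSO), then 40 μM substrate added for 4 h at room temperature. Fluorescence at 360/460 nm, blank-subtracted; IC50 from % inhibition, with GC376 as inhibitor control.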

Compound | IC50 [nM]
Cc1ccc2[nH]c(=O)c(C[C@@H](C#N)NC(=O)[C@@H]3[C@H]4[C@H](CN3C(=O)[C@@H](NC(=O)C(F)(F)F)C(C)(C)C)C4(C)C)cc2c1 [Compound 113, (1S,2S,5S)—N-[(1S)-1-cyano-2-(6-methyl-2-oxo-1H-quinolin-3-yl)ethyl]-3-[(2S)-3,3-dimethyl-2-[(2,2,2-trifluoroacetyl)amino]butanoyl]-6,6-dimethyl-3-azabicyclo[3.1.0]hexane-2-carboxamide] | < 50
Cc1ccc2[nH]c(=O)c(CC(C#N)NC(=O)[C@@H]3C4[C@H](CN3C(=O)[C@@H](Nc3nccc(C(F)(F)F)n3)C(C)(C)C)C4(C)C)cc2c1 (stereo in doubt) [Compound 156, (1R,2S,5S)—N-(1-Cyano-2-(6-methyl-2-oxo-1,2-dihydroquinolin-3-yl)ethyl)-3-((S)-3,3-dimethyl-2-((4-(trifluoromethyl)pyrimidin-2-yl)amino)butanoyl)-6,6-dimethyl-3-azabicyclo[3.1.0]hexane-2-carboxamide] | ≥ 1000
Cc1ccc2[nH]c(=O)c(C[C@@H](C#N)NC(=O)[C@@H]3[C@H]4[C@H](CN3C(=O)[C@@H](NC(=O)C(F)(F)F)C(C)(C)C)C4(C)C)cc2c1 (stereo in doubt) [Compound 107, (1R,2S,5S)—N-(1-Cyano-2-(6-methyl-2-oxo-1,2-dihydroquinolin-3-yl)ethyl)-3-((S)-3,3-dimethyl-2-(2,2,2-trifluoroacetamido)butanoyl)-6,6-dimethyl-3-azabicyclo[3.1.0]hexane-2-carboxamide] | 50 to 100
CC(C)(C)[C@H](NC(=O)C(F)(F)F)C(=O)N1C[C@H]2C([C@H]1C(=O)NC(C#N)Cc1cc3ccc(Cl)cc3[nH]c1=O)C2(C)C (stereo in doubt) [Compound 105, (1R,2S,5S)—N-(2-(7-Chloro-2-oxo-1,2-dihydroquinolin-3-yl)-1-cyanoethyl)-3-((S)-3,3-dimethyl-2-(2,2,2-trifluoroacetamido)butanoyl)-6,6-dimethyl-3-azabicyclo[3.1.0]hexane-2-carboxamide] | 50 to 100
CC(C)(C)[C@H](NC(=O)C(F)(F)F)C(=O)N1C[C@H]2C([C@H]1C(=O)NC(C#N)Cc1ccc[nH]c1=O)C2(C)C (stereo in doubt) [Compound 101, (1R,2S,5S)—N-(1-Cyano-2-(2-oxo-1,2-dihydropyridin-3-yl)ethyl)-3-((S)-3,3-dimethyl-2-(2,2,2-trifluoroacetamido)butanoyl)-6,6-dimethyl-3-azabicyclo[3.1.0]hexane-2-carboxamide] | 100 to 250
CC(C)(C)[C@H](NC(=O)C(F)(F)F)C(=O)N1C[C@H]2[C@@H]([C@H]1C(=O)N[C@@H](C#N)Cc1nc3ccccc3[nH]c1=O)C2(C)C [Compound 186, (1R,2S,5S)—N-[(1R)-1-cyano-2-(3-oxo-4H-quinoxalin-2-yl)ethyl]-3-[(2S)-3,3-dimethyl-2-[(2,2,2-trifluoroacetyl)amino]butanoyl]-6,6-dimethyl-3-azabicyclo[3.1.0]hexane-2-carboxamide] | < 50
Cc1ccc2[nH]c(=O)c(CC(C#N)NC(=O)[C@@H]3C4[C@H](CN3C(=O)[C@@H](NC(=O)OC(C)(C)C)C(C)(C)C)C4(C)C)cc2c1 (stereo in doubt) [Compound 171, tert-Butyl ((2S)-1-((1R,2S,5S)-2-((1-cyano-2-(6-methyl-2-oxo-1,2-dihydroquinolin-3-yl)ethyl)carbamoyl)-6,6-dimethyl-3-azabicyclo[3.1.0]hexan-3-yl)-3,3-dimethyl-1-oxobutan-2-yl)carbamate] | 250 to 500
CCOC(=O)N[C@@H](C(=O)N1CC2C(C1C(=O)N[C@@H](C#N)Cc1cc3cc(C)ccc3[nH]c1=O)C2(C)C)C(C)(C)C (stereo in doubt) [Compound 201, Ethyl N-[(1R)-1-[(1S)-2-[[(1R)-1-cyano-2-(6-methyl-2-oxo-1H-quinolin-3-yl)ethyl]carbamoyl]-6,6-dimethyl-3-azabicyclo[3.1.0]hexane-3-carbonyl]-2,2-dimethyl-propyl]carbamate] | 50 to 100
CC(C)(C)[C@H](NS(C)(=O)=O)C(=O)N1C[C@H]2C([C@H]1C(=O)NC(C#N)Cc1cc3c([nH]c1=O)CCCC3)C2(C)C (stereo in doubt) [Compound 122, (1R,2S,5S)—N-(1-Cyano-2-(2-oxo-1,2,5,6,7,8-hexahydroquinolin-3-yl)ethyl)-3-((S)-3,3-dimethyl-2-(methylsulfonamido)butanoyl)-6,6-dimethyl-3-azabicyclo[3.1.0]hexane-2-carboxamide] | 100 to 250
Cc1ccc2[nH]c(=O)c(CC(C#N)NC(=O)[C@@H]3C4[C@H](CN3C(=O)[C@@H](NS(C)(=O)=O)C(C)(C)C)C4(C)C)cc2c1 (stereo in doubt) [Compound 102, (1R,2S,5S)—N-(1-Cyano-2-(6-methyl-2-oxo-1,2-dihydroquinolin-3-yl)ethyl)-3-((S)-3,3-dimethyl-2-(methylsulfonamido)butanoyl)-6,6-dimethyl-3-azabicyclo[3.1.0]hexane-2-carboxamide] | < 50
Cc1ccc2[nH]c(=O)c(C[C@@H](C#N)NC(=O)[C@@H]3C4[C@H](CN3C(=O)[C@@H](Nc3nccc(C)n3)C(C)(C)C)C4(C)C)cc2c1 (stereo in doubt) [Compound 160, (1R,2S,5S)—N—((S)-1-Cyano-2-(6-methyl-2-oxo-1,2-dihydroquinolin-3-yl)ethyl)-3-((S)-3,3-dimethyl-2-((4-methylpyrimidin-2-yl)amino)butanoyl)-6,6-dimethyl-3-azabicyclo[3.1.0]hexane-2-carboxamide] | ≥ 1000
CC(C)(C)[C@H](NC(=O)C(F)(F)F)C(=O)N1C[C@H]2[C@@H]([C@H]1C(=O)N[C@H](C#N)Cc1nc3ccccc3[nH]c1=O)C2(C)C [Compound 185, (1R,2S,5S)—N-[(1S)-1-Cyano-2-(3-oxo-4H-quinoxalin-2-yl)ethyl]-3-[(2S)-3,3-dimethyl-2-[(2,2,2-trifluoroacetyl)amino]butanoyl]-6,6-dimethyl-3-azabicyclo[3.1.0]hexane-2-carboxamide] | < 50
COc1cc2cc(C[C@@H](C#N)NC(=O)[C@@H]3[C@@H]4[C@H](CN3C(=O)[C@@H](NC(=O)C(F)(F)F)C(C)(C)C)C4(C)C)c(=O)[nH]c2cc1C [Compound 179] | 50 to 100
CC(C)(C)[C@H](NC(=O)C(F)(F)F)C(=O)N1C[C@H]2[C@@H]([C@H]1C(=O)N[C@H](C#N)Cc1cc3cc(F)c(F)cc3[nH]c1=O)C2(C)C [Compound 177, (1R,2S,5S)—N—((S)-1-Cyano-2-(6,7-difluoro-2-oxo-1,2-dihydroquinolin-3-yl)ethyl)-3-((S)-3,3-dimethyl-2-(2,2,2-trifluoroacetamido)butanoyl)-6,6-dimethyl-3-azabicyclo[3.1.0]hexane-2-carboxamide] | 50 to 100
CC(C)(C)[C@H](NS(C)(=O)=O)C(=O)N1C[C@H]2C([C@H]1C(=O)NC(C#N)Cc1cc3c([nH]c1=O)CCOC3)C2(C)C (stereo in doubt) [Compound 124, (1R,2S,5S)—N-(1-Cyano-2-(2-oxo-1,5,7,8-tetrahydro-2H-pyrano[4,3-b]pyridine-3-yl)ethyl)-3-((S)-3,3-dimethyl-2-(methylsulfonamido)butanoyl)-6,6-dimethyl-3-azabicyclo[3.1.0]hexane-2-carboxamide] | 100 to 250
Cc1ccc2[nH]c(=O)c(C[C@H](C#N)NC(=O)C3C4C(CN3C(=O)[C@H](NC(=O)OC(C)C)C(C)(C)C)C4(C)C)cc2c1 (stereo in doubt) [Compound 202, Isopropyl N-[(1R)-1-[(1S)-2-[[(1R)-1-cyano-2-(6-methyl-2-oxo-1H-quinolin-3-yl)ethyl]carbamoyl]-6,6-dimethyl-3-azabicyclo[3.1.0]hexane-3-carbonyl]-2,2-dimethyl-propyl]carbamate] | 100 to 250
Cc1ccc2[nH]c(=O)c(C[C@H](C#N)NC(=O)C3C4C(CN3C(=O)[C@H](NC(=O)C(C)C)C(C)(C)C)C4(C)C)cc2c1 (stereo in doubt) [Compound 204, (1S)—N-[(1R)-1-cyano-2-(6-methyl-2-oxo-1H-quinolin-3-yl)ethyl]-3-[(2R)-3,3-dimethyl-2-(2-methylpropanoylamino)butanoyl]-6,6-dimethyl-3-azabicyclo[3.1.0]hexane-2-carboxamide] | 50 to 100
Cc1ccc2[nH]c(=O)c(CC(C#N)NC(=O)[C@@H]3C4[C@H](CN3C(=O)[C@@H](Nc3nc(C)cs3)C(C)(C)C)C4(C)C)cc2c1 (stereo in doubt) [Compound 151, (1R,2S,5S)—N-(1-Cyano-2-(6-methyl-2-oxo-1,2-dihydroquinolin-3-yl)ethyl)-3-((S)-3,3-dimethyl-2-((4-methylthiazol-2-yl)amino)butanoyl)-6,6-dimethyl-3-azabicyclo[3.1.0]hexane-2-carboxamide] | 500 to 1000

same assay, conditions: Table B; comparison with known compound K; read-out: IC50, nM (3CL Protease enzymatic activity, comparative data)

Compound | IC50 [nM]
CC(C)(C)[C@H](NC(=O)C(F)(F)F)C(=O)N1C[C@H]2C([C@H]1C(=O)NC(C#N)Cc1ccc[nH]c1=O)C2(C)C (stereo in doubt) [Compound 101, (1R,2S,5S)—N-(1-Cyano-2-(2-oxo-1,2-dihydropyridin-3-yl)ethyl)-3-((S)-3,3-dimethyl-2-(2,2,2-trifluoroacetamido)butanoyl)-6,6-dimethyl-3-azabicyclo[3.1.0]hexane-2-carboxamide] | 147
